Reference: patent US8623885B2, “Fused tricyclic dual inhibitors of CDK 4/6 and FLT3” (Amgen Inc., priority 2011, dated 2014)

What was measured:
[1] = target: FLT3 enzyme (GST-FLT3 fusion) (Homo sapiens (Human), UniProt P36888); assay: FLT3 HTRF kinase assay; format: biochemical; settings: 116 μM ATP
Method: The FLT3 inhibitory activity of the CDK4/6-FLT3 inhibitors was determined with a HTRF kinase assay. The FLT3 enzyme (GST-FLT3 fusion) was purchased from Carna Biosciences. An ULight-labeled synthetic peptide derived from human Janus kinase 1 (aa1015-1027, ULight-JAK1, PerkinElmer) was utilized as the phosphoacceptor substrate. The assay was conducted in a 384-well white OptiPlate (PerkinElmer). The 20 μL reaction mixture contained 50 nM ULight-JAK1, 116 μM ATP, 0.0385 ng/μL FLT3 and dilutions of test compounds in the kinase buffer (50 mM Hepes, pH 7.6, 1 mM EGTA, 10 mM MgCl2, 2 mM DTT, and 0.005% Tween 20). The reaction was allowed to proceed for 1 hour at room temperature and was stopped by adding 20 μL of 10 mM EDTA, 2 nM LANCE® Eu-W1024 anti-phospho-tyrosine antibody in LANCE® detection buffer (PerkinElmer). The plates were incubated at room temperature for 2 hours after addition of detection reagents and then read on an Envision multimode reader (PerkinElmer).
(§1) IC50 values of the compounds in the above assays were determined by non-linear regression analysis using Prism (GraphPad Software).

CDK4/Cyclin D1 = CDK4/Cyclin D1 (Homo sapiens (Human), UniProt P11802); assay: CDK4 filtration kinase assay; format: biochemical; settings: CDK4/Cyclin D1, Rb fragment substrate, [33P]-ATP filtration assay
Method: The CDK4 and CDK1 inhibitory activity of the CDK4/6-FLT3 inhibitors was determined with a filtration kinase assay. The compounds, kinase and substrate diluted in the kinase buffer (20 mM Tris, pH7.4, 50 mM NaCl, 1 mM DTT, 0.1% BSA) were sequentially added to a 96-well Multiscreen HTS filtration plate (Millipore). The final 100 μL reaction mixture in each well contained 0.3 μg of CDK4/Cyclin D1 or CDK1/Cyclin B (Cell Signaling Technology), 1 μg of Rb fragment (aa773-928, Millipore) for the CDK4 assay or 5 μg of histone H1 for the CDK1 assay and 1 μCi of [^33P]-ATP. The mixture was incubated at room temperature for 1 hour. The proteins in the reaction were then precipitated and washed with cold TCA solution using an aspiration/filtration vacuum system. The plates were dried at room temperature, and the retained radioactivity was measured by scintillation counting.
as §1

MOLM13 cells = assay: [14C]-thymidine incorporation cell proliferation assay, MOLM13; format: cell-based, human; settings: Homo sapiens, MOLM-13, 72 hour incubation
Method: The cell proliferation inhibition potency of the CDK4/6-FLT3 inhibitors was determined by using a [^14C]-thymidine incorporation assay. Exponentially growing cells (MOLM-13, Colo-205, etc.) were seeded in a 96-well Cytostar T plate (GE Healthcare Biosciences) at a density of 5×10^3 cells/well and incubated overnight. Serially diluted compounds and 0.1 μCi of [^14C]-thymidine (GE Healthcare Biosciences) were added to each well on the following day. After 72 hour incubation, isotope incorporation was determined with a β plate counter (Wallac). MOLM13 is a human AML tumor cell line expressing FLT3, FLT3^ITD and wild type Rb.
as §1

Chain of CDK4/Cyclin D1 (P11802 whole entry, the tested form may be a part): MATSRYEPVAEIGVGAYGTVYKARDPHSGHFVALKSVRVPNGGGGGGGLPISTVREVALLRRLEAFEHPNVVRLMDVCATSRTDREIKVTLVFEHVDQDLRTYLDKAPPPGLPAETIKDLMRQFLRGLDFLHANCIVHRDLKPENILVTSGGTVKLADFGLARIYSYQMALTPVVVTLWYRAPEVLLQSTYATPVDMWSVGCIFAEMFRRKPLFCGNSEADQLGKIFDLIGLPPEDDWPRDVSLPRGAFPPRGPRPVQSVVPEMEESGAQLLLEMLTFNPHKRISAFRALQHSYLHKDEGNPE
Chain of CDK4/Cyclin D1 (P24385 whole entry partner, the tested form may be a part): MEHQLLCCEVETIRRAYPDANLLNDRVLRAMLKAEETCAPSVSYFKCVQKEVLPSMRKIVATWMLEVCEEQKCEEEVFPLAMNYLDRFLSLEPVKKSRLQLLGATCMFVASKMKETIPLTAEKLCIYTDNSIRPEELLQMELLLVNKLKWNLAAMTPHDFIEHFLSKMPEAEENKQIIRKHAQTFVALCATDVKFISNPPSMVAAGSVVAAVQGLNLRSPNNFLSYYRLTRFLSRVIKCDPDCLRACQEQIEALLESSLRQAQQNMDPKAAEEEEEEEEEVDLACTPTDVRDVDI
Chain of FLT3 enzyme (GST-FLT3 fusion) (P36888 27-993): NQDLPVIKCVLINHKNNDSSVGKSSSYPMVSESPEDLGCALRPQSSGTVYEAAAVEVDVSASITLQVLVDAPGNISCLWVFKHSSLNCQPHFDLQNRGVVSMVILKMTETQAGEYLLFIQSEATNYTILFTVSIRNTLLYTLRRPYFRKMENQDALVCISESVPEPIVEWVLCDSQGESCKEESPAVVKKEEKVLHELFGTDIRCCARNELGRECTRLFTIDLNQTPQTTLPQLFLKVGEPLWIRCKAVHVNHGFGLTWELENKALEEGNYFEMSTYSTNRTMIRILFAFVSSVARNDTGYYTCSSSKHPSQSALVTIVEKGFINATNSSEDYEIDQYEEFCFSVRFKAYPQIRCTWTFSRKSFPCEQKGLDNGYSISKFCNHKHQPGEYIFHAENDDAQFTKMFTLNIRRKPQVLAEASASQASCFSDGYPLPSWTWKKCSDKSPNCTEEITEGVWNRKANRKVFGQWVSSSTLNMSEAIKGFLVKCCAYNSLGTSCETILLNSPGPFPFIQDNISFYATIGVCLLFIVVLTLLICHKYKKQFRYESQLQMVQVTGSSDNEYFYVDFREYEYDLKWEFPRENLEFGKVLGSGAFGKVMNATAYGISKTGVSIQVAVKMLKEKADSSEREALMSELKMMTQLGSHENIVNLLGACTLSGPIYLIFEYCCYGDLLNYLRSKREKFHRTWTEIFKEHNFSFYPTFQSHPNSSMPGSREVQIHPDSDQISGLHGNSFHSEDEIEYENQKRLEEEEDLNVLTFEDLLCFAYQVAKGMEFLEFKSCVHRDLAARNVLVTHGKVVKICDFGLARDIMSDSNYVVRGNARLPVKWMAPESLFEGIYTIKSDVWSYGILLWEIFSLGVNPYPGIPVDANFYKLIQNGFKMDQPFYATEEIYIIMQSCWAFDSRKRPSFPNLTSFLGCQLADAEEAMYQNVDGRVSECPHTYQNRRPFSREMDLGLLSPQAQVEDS

SMILES	IC50 [1] [nM]	IC50 (CDK4/Cyclin D1) [nM]	IC50 (MOLM13 cells) [nM]
COc1cc2c3cnc(Nc4ccc5c(n4)CCN(C(=O)CO)C5)nc3n([C@H]3CC[C@H](C)CC3)c2cn1 [Example 20, 2-Hydroxy-1-(2-((6-methoxy-9-((1r,4r)-4-methylcyclohexyl)-9H-pyrido[4′,3′:4,5]-pyrrolo[2,3-d]pyrimidin-2-yl)amino)-7,8-dihydro-1,6-naphthyridin-6(5H)-yl)ethanone]	144	847	208
C[C@H]1CC[C@H](n2c3cnccc3c3cnc(Nc4ccc5c(n4)CCN(CCF)C5)nc32)CC1 [Example 9, N-(6-(2-Fluoroethyl)-5,6,7,8-tetrahydro-1,6-naphthyridin-2-yl)-9-((1r,4r)-4-methylcyclohexyl)-9H-pyrido[4′,3′:4,5]pyrrolo[2,3-d]pyrimidin-2-amine]	3.4	72.8	64.9
C[C@H]1CC[C@H](n2c3cnccc3c3cnc(Nc4ccc5c(n4)CCNC5)nc32)CC1 [Example 1, 9-((1r,4r)-4-Methylcyclohexyl)-N-(5,6,7,8-tetrahydro-1,6-naphthyridin-2-yl)-9H-pyrido[4′,3′:4,5]pyrrolo[2,3-d]pyrimidin-2-amine]	1.3	2.1	15.2
COc1cc2c3cnc(Nc4ccc5c(n4)CCNC5)nc3n([C@H]3CC[C@H](C)CC3)c2cn1 [Example 19, 6-Methoxy-9-((1r,4r)-4-methylcyclohexyl)-N-(5,6,7,8-tetrahydro-1,6-naphthyridin-2-yl)-9H-pyrido[4′,3′:4,5]pyrrolo[2,3-d]pyrimidin-2-amine]	33	1790	204
C[C@H]1CC[C@H](n2c3cnccc3c3cnc(Nc4ccc5c(n4)C(O)CN(CCO)C5)nc32)CC1 (stereo partly shown) [Example 17, 6-(2-Hydroxyethyl)-2-((9-((1r,4r)-4-methylcyclohexyl)-9H-pyrido[4′,3′:4,5]pyrrolo[2,3-d]pyrimidin-2-yl)amino)-5,6,7,8-tetrahydro-1,6-naphthyridin-8-ol]	–	–	21.9
C[C@H]1CC[C@H](n2c3cnccc3c3cnc(Nc4cc5c(cn4)CNCC5)nc32)CC1 [Example 24, 9-((1r,4r)-4-Methylcyclohexyl)-N-(5,6,7,8-tetrahydro-2,7-naphthyridin-3-yl)-9H-pyrido[4′,3′:4,5]pyrrolo[2,3-d]pyrimidin-2-amine]	–	4.7	3.5
C[C@H]1CC[C@H](n2c3cnccc3c3cnc(Nc4cc5c(cn4)CN(C(=O)CO)CC5)nc32)CC1 [Example 31, 2-Hydroxy-1-(6-((9-((1r,4r)-4-methylcyclohexyl)-9H-pyrido[4′,3′:4,5]pyrrolo[2,3-d]pyrimidin-2-yl)amino)-3,4-dihydro-2,7-naphthyridin-2(1H)-yl)ethanone]	–	35	6.7
CC(C)(C)OC(=O)N1CCc2ccc(Nc3ncc4c5ccncc5n([C@H]5CC[C@H](C)CC5)c4n3)nc2C1 [Example 35, tert-Butyl 2-((9-((1r,4r)-4-methylcyclohexyl)-9H-pyrido[4′,3′:4,5]pyrrolo[2,3-d]pyrimidin-2-yl)amino)-5,6-dihydro-1,7-naphthyridine-7(8H)-carboxylate]	–	26	480

Other lines, results leading:

IC50 [1] [nM]	IC50 (CDK4/Cyclin D1) [nM]	IC50 (MOLM13 cells) [nM]	SMILES
3.2	4.5	22.5	CC(=O)N1CCc2nc(Nc3ncc4c5ccncc5n([C@H]5CC[C@H](C)CC5)c4n3)ccc2C1 [Example 2, 1-(2-((9-((1r,4r)-4-Methylcyclohexyl)-9H-pyrido[4′,3′:4,5]pyrrolo[2,3-d]pyrimidin-2-yl)amino)-7,8-dihydro-1,6-naphthyridin-6(5H)-yl)ethanone]
21.4	–	206	C[C@H]1CC[C@H](n2c3cnccc3c3cnc(Nc4ccc5c(n4)CCN(CCC(F)(F)F)C5)nc32)CC1 [Example 7, 9-((1r,4r)-4-Methylcyclohexyl)-N-(6-(3,3,3-trifluoropropyl)-5,6,7,8-tetrahydro-1,6-naphthyridin-2-yl)-9H-pyrido[4′,3′:4,5]pyrrolo[2,3-d]pyrimidin-2-amine]
36.1	2.4	9.1	CS(=O)(=O)CCN1CCc2nc(Nc3ncc4c5ccncc5n([C@H]5CC[C@H](C)CC5)c4n3)ccc2C1 [Example 8, 9-((1r,4r)-4-Methylcyclohexyl)-N-(6-(2-(methylsulfonyl)ethyl)-5,6,7,8-tetrahydro-1,6-naphthyridin-2-yl)-9H-pyrido[4′,3′:4,5]pyrrolo[2,3-d]pyrimidin-2-amine]
1.8	2.6	14.8	C[C@H]1CC[C@H](n2c3cnccc3c3cnc(Nc4ccc5c(n4)CCN(CCO)C5)nc32)CC1 [Example 3, 2-(2-((9-((1r,4r)-4-Methylcyclohexyl)-9H-pyrido[4′,3′:4,5]pyrrolo[2,3-d]pyrimidin-2-yl)amino)-7,8-dihydro-1,6-naphthyridin-6(5H)-yl)ethanol]
–	6.3	3	C[C@H]1CC[C@H](n2c3cnccc3c3cnc(Nc4ccc5c(n4)CN(C(=O)CO)CC5)nc32)CC1 [Example 30, 2-Hydroxy-1-(2-((9-((1r,4r)-4-methylcyclohexyl)-9H-pyrido[4′,3′:4,5]pyrrolo[2,3-d]pyrimidin-2-yl)amino)-5,6-dihydro-1,7-naphthyridin-7(8H)-yl)ethanone]
–	3	0.3	CN(C)CC(=O)N1CCc2nc(Nc3ncc4c5ccncc5n([C@H]5CC[C@H](C)CC5)c4n3)ccc2C1 [Example 34, 2-(Dimethylamino)-1-(2-((9-((1r,4r)-4-methylcyclohexyl)-9H-pyrido[4′,3′:4,5]pyrrolo[2,3-d]pyrimidin-2-yl)amino)-7,8-dihydro-1,6-naphthyridin-6(5H)-yl)ethanone]
–	8.6	1.5	C[C@H]1CC[C@H](n2c3cnccc3c3cnc(Nc4ccc5c(n4)CNCC5)nc32)CC1 [Example 23, 9-((1r,4r)-4-Methylcyclohexyl)-N-(5,6,7,8-tetrahydro-1,7-naphthyridin-2-yl)-9H-pyrido[4′,3′:4,5]pyrrolo[2,3-d]pyrimidin-2-amine]
–	12	1.8	C[C@H](O)C(=O)N1CCc2nc(Nc3ncc4c5ccncc5n([C@H]5CC[C@H](C)CC5)c4n3)ccc2C1 [Example 32, (S)-2-Hydroxy-1-(2-((9-((1r,4r)-4-methylcyclohexyl)-9H-pyrido[4′,3′:4,5]pyrrolo[2,3-d]pyrimidin-2-yl)amino)-7,8-dihydro-1,6-naphthyridin-6(5H)-yl)propan-1-one]
–	350	–	CC(C)(C)OC(=O)N1CCc2cc(Nc3ncc4c5ccncc5n([C@H]5CC[C@H](C)CC5)c4n3)ncc2C1 [Example 36, tert-Butyl 6-((9-((1r,4r)-4-methylcyclohexyl)-9H-pyrido[4′,3′:4,5]pyrrolo[2,3-d]pyrimidin-2-yl)amino)-3,4-dihydro-2,7-naphthyridine-2(1H)-carboxylate]
–	41	3.1	C[C@@H](O)C(=O)N1CCc2nc(Nc3ncc4c5ccncc5n([C@H]5CC[C@H](C)CC5)c4n3)ccc2C1 [Example 33, (R)-2-hydroxy-1-(2-((9-((1r,4r)-4-methylcyclohexyl)-9H-pyrido[4′,3′:4,5]pyrrolo[2,3-d]pyrimidin-2-yl)amino)-7,8-dihydro-1,6-naphthyridin-6(5H)-yl)propan-1-one]
–	3	1.4	CCN(CC)CC(=O)N1CCc2nc(Nc3ncc4c5ccncc5n([C@H]5CC[C@H](C)CC5)c4n3)ccc2C1 [Example 37, 2-(Diethylamino)-1-(2-((9-((1r,4r)-4-methylcyclohexyl)-9H-pyrido[4′,3′:4,5]pyrrolo[2,3-d]pyrimidin-2-yl)amino)-7,8-dihydro-1,6-naphthyridin-6(5H)-yl)ethanone]
